Where two headings read alike, the source gives them in different places.
Experiment: Comparative bioavailability of Trial 2 of Example 4 and ACTOS tablets 45 mg, open label randomized cross-over single dose study, fasting, 55 subjects
Type: in vivo
Conditions: human, plasma, oral, calculated from Table 6 results, single dose to humans
Experimental: In determining bioequivalence, for example, between two products such as a commercially available product and a proposed product, pharmacokinetic studies are conducted whereby each of the preparations is administered in a crossover study to volunteer subjects. Serum plasma samples are obtained at regular intervals and assayed for parent drug (or occasionally metabolite) concentrations. For a pharmacokinetic comparison, the plasma concentration data are used to assess key pharmacokinetic parameters such as area under the plasma concentration-time curve (AUC), peak concentration (Cmax) and time to peak plasma concentration (Tmax).
R represents reference product, i.e., ACTOS tablets 45 mg.
Study design: Open label randomized cross-over single dose study under fasting conditions.

## CCc1ccc(CCOc2ccc(CC3SC(=O)NC3=O)cc2)nc1 (racemic) [Pioglitazone, (±)-5-[[4-[2-(5-ethyl-2-pyridinyl)ethoxy]phenyl]methyl]-2,4-]thiazolidinedione]
read-out: therapeutically equivalent range of plasma pioglitazone AUC0-∞
  AUC(0-inf): 12300 to 19100 ng·h/mL
read-out: therapeutically equivalent range of plasma pioglitazone AUC0-∞T
  AUC(0-inf): 11900 to 18500 ng·h/mL
read-out: therapeutically equivalent range of plasma pioglitazone Cmax
  Cmax: 1030 to 1610 ng/mL
